Source: ChEMBL document CHEMBL5584269 (Bioorg Med Chem Lett, 2024)
The source made the active and inactive calls. No cut-off for these calls is given here.

Tests used:
[1] = test system: Leishmania major; assay: Antileishmanial activity against promastigote form of Leishmania major Freidlin assessed as reduction in parasite growth incubated for 72 hrs by alamar blue dye based fluorescence analysis; format: functional, organism-based
[2] = test system: Leishmania donovani; assay: Antileishmanial activity against promastigote form of Leishmania donovani assessed as reduction in parasite growth incubated for 72 hrs by alamar blue dye based fluorescence analysis; format: functional, organism-based
[3] = test system: Trypanosoma cruzi; assay: Antitrypanosomal activity against epimastigote form of Trypanosoma cruzi CL Brener assessed as reduction in parasite growth incubated for 72 hrs by alamar blue dye based fluorescence analysis; format: functional, organism-based
[4] = test system: HeLa; assay: Cytotoxicity against human HeLa cells incubated for 72 hrs by alamar blue cell viability assay; format: functional, cell-based
[5] = test system: Trypanosoma brucei; assay: Antitrypanosomal activity against bloodstream trypomastigote form of Trypanosoma brucei Lister 427 assessed as reduction in parasite growth incubated for 72 hrs by alamar blue dye based fluorescence analysis; format: functional, organism-based; conditions: Lister 427, 72 h
[6] = test system: Leishmania donovani; assay: Antileishmanial activity against Leishmania donovani axenic amastigotes assessed as reduction in parasite growth incubated for 72 hrs by alamar blue dye based fluorescence analysis; format: functional, organism-based
[7] = test system: THP-1; assay: Cytotoxicity against human THP-1 cells incubated for 72 hrs by alamar blue cell viability assay; format: functional, cell-based; conditions: THP-1, 72 h
[8] = test system: Trypanosoma brucei; assay: Induction of morphological change in bloodstream trypomastigote form of Trypanosoma brucei Lister 427 assessed as reduction in cytokinesis at EC10 incubated for 48 hrs by DAPI staining based immunofluorescence analysis; format: functional, organism-based
[9] = test system: Leishmania donovani; assay: Antileishmanial activity against Leishmania donovani amastigotes infected in human THP-1 cells assessed as reduction in parasite growth incubated for 72 hrs by alamar blue dye based fluorescence analysis; format: functional, organism-based; conditions: THP-1, 72 h
[10] = Selectivity ratio of EC50 for antileishmanial activity against Leishmania donovani amastigotes infected in human THP-1 cells to EC50 for cytotoxicity against human THP-1 cells; format: functional
[11] = test system: Leishmania major; assay: Induction of morphological change in promastigote form of Leishmania major Freidlin assessed as increase in intracellular vesicles at EC10 incubated for 48 hrs by DAPI staining based immunofluorescence analysis; format: functional, organism-based
[12] = test system: Trypanosoma brucei; assay: Induction of morphological change in bloodstream trypomastigote form of Trypanosoma brucei Lister 427 assessed as appearance of swollen cells at EC10 incubated for 48 hrs by DAPI staining based immunofluorescence analysis; format: functional, organism-based
[13] = test system: Leishmania major; assay: Antileishmanial activity against promastigote form of Leishmania major Freidlin assessed as morphological change at EC10 incubated for 48 hrs by DAPI staining based immunofluorescence analysis; format: functional, organism-based
[14] = test system: Trypanosoma cruzi; assay: Antitrypanosomal activity against epimastigote form of Trypanosoma cruzi CL Brener assessed as fold change in reduction of parasite growth incubated for 72 hrs by alamar blue dye based fluorescence analysis relative to miltefosine; format: functional

## CC(C)CC(=O)N1CCC[C@H]1C(=O)O
[1]
  EC50: 2.26 µM
[2]
  EC50: 2.03 µM
[3]
  EC50: 17.4 µM
[4]
  EC50: > 250 µM
[5]
  EC50: 2.46 µM

## O=C(O)[C@H]1CCCN1C(=O)CCS
[1]
  EC50: 6.06 µM
[2]
  EC50: 4.59 µM
[3]
  EC50: 18.2 µM
[4]
  EC50: > 250 µM
[5]
  EC50: 16.7 µM

## COC(=O)[C@H]1CCCN1C(=O)C(C)C
[1]
  EC50: 3.3 µM
[2]
  EC50: 3.58 µM
[3]
  EC50: 54.1 µM
[4]
  EC50: > 250 µM
[5]
  EC50: 7.52 µM

## CSCCC(=O)N1CCC[C@@H]1C(=O)O
[1]
  EC50: 4.81 µM
[2]
  EC50: 4.27 µM
[3]
  EC50: 39.1 µM
[4]
  EC50: > 250 µM
[5]
  EC50: 9.7 µM

## COC(=O)[C@@H]1CCCN1C(=O)CC(C)C
[1]
  EC50: 1.97 µM
[6]
  EC50: 0.97 µM
[2]
  EC50: 1.63 µM
[7]
  EC50: > 250 µM
[8]
  Activity: Active
[3]
  EC50: 14.2 µM
[9]
  EC50: 2.23 µM
[4]
  EC50: > 250 µM
[10]
  Ratio EC50: 50
[11]
  Activity: Active
[12]
  Activity: Active
[5]
  EC50: 1.95 µM

## COC(=O)[C@@H]1CCCN1C(=O)CCSCc1ccccc1
[1]
  EC50: 1.24 µM
[6]
  EC50: 0.91 µM
[2]
  EC50: 1.18 µM
[7]
  EC50: > 250 µM
[8]
  Activity: Active
[3]
  EC50: 5.1 µM
[9]
  EC50: 4.98 µM
[4]
  EC50: > 250 µM
[13]
  Activity: inactive
[10]
  Ratio EC50: 50
[12]
  Activity: Active
[14]
  fold change (FC): 3
[5]
  EC50: 6.9 µM

## COC(=O)[C@H]1CCCN1C(=O)C(C)(C)C
[1]
  EC50: 39.9 µM
[2]
  EC50: 34.7 µM
[3]
  EC50: 73.5 µM
[4]
  EC50: > 250 µM
[5]
  EC50: 96.7 µM

## COC(=O)[C@@H]1CCCN1C(=O)Cc1ccccc1
[1]
  EC50: 12.4 µM
[2]
  EC50: 11.7 µM
[3]
  EC50: 44.1 µM
[4]
  EC50: > 250 µM
[5]
  EC50: 38 µM

## O=C(O)[C@@H]1CCCN1C(=O)CCSCc1ccccc1
[1]
  EC50: 3.16 µM
[2]
  EC50: 2.58 µM
[3]
  EC50: 19.9 µM
[4]
  EC50: 120 µM
[5]
  EC50: 14.8 µM

## O=C(O)[C@H]1CCCN1C(=O)CCSCc1ccccc1
[1]
  EC50: 39.6 µM
[2]
  EC50: 39.8 µM
[3]
  EC50: 71.2 µM
[4]
  EC50: > 250 µM
[5]
  EC50: 5.9 µM

## COC(=O)[C@H]1CCCN1C(=O)CC(C)C
[1]
  EC50: 2.04 µM
[6]
  EC50: 0.87 µM
[2]
  EC50: 1.09 µM
[7]
  EC50: > 250 µM
[3]
  EC50: 37.1 µM
[9]
  EC50: 2.05 µM
[4]
  EC50: > 250 µM
[10]
  Ratio EC50: 50
[5]
  EC50: 1.44 µM

## CC(C)C(=O)N1CCC[C@@H]1C(=O)O
[1]
  EC50: 4.11 µM
[2]
  EC50: 4.8 µM
[3]
  EC50: 59.7 µM
[4]
  EC50: > 250 µM
[5]
  EC50: 9.9 µM

## CC(C)CC(=O)N1CCC[C@@H]1C(=O)O
[1]
  EC50: 2.77 µM
[2]
  EC50: 1.42 µM
[3]
  EC50: 39.6 µM
[4]
  EC50: > 250 µM
[5]
  EC50: 1.92 µM

## CC(C)(C)C(=O)N1CCC[C@H]1C(=O)O
[1]
  EC50: 20.4 µM
[2]
  EC50: 19.9 µM
[3]
  EC50: 70.9 µM
[4]
  EC50: > 250 µM
[5]
  EC50: 61.5 µM

## COC(=O)[C@@H]1CCCN1C(=O)CCSC
[1]
  EC50: 2.46 µM
[6]
  EC50: 1.86 µM
[2]
  EC50: 2.02 µM
[7]
  EC50: > 250 µM
[3]
  EC50: 19.5 µM
[9]
  EC50: 4.67 µM
[4]
  EC50: > 250 µM
[10]
  Ratio EC50: 50
[5]
  EC50: 12.4 µM

## CCCCCCCCCCCCCCCCOP(=O)([O-])OCC[N+](C)(C)C [MILTEFOSINE]
[1]
  EC50: 5.31 µM
[6]
  EC50: 2.67 µM
[2]
  EC50: 5.82 µM
[7]
  EC50: > 250 µM
[9]
  EC50: 5.97 µM

## C[C@H](CS)C(=O)N1CCC[C@H]1C(=O)O [CAPTOPRIL]
[1]
  EC50: 12.4 µM
[2]
  EC50: 9.41 µM
[4]
  EC50: 130 µM
[5]
  EC50: 22.9 µM

## COC(=O)[C@H]1CCCN1C(=O)Cc1ccccc1
[1]
  EC50: 101 µM
[2]
  EC50: 95.2 µM
[3]
  EC50: > 200 µM
[4]
  EC50: > 250 µM
[5]
  EC50: > 200 µM
